Type in all cases: cell-based
Assay [1] concerns Pseudomonas aeruginosa SR24. In words: in vitro antimicrobial activity, MIC by agar plate incubation (Japan Society for Chemotherapy method). To be noted: no enzyme, Ceftazidime sensitive strain, 1000 cfu/spot, sensitive disc medium, read-out: Minimum Inhibitory Concentration (MIC). On the procedure: (§1) Compound (I) of the subject invention has been investigated for in vitro antimicrobial activity thereof.
(§2) (Microbe/Strain Species Nos. 1-4):
(§3) Measurement of Minimum Inhibitory Concentration (MIC: microgram/ml) was conducted according to the standard method of the Japan Society for Chemotherapy, and the amount of bacteria for inoculation was 1000 cfu/spot, and sensitive disc medium was used as the test medium, and conducted using agar plate incubation.
(§4) In the tables, the unit of the values of inhibitory activity is microgram/ml (μg/ml)

Assay [2] has as its system Acinetobacter baumannii SR24396. Described as above. The following applies: 1000 cfu/spot, sensitive disc medium, read-out: Minimum Inhibitory Concentration (MIC). On the procedure: as §1, §2, §3, §4
The subject of assay [3] is Pseudomonas aeruginosa SR27060. The description is as above. To be noted: IMP-1, MBL producing strain (carbapenem resistant strain), 1000 cfu/spot, sensitive disc medium, read-out: Minimum Inhibitory Concentration (MIC). On the procedure: as §1, §2, §3, §4
Assay [4] deals with Klebsiella pneumoniae ATCC 700603. The assay is described as above. To be noted: ATCC700603, SHV-18, ESBL producing strain, 1000 cfu/spot, sensitive disc medium, read-out: Minimum Inhibitory Concentration (MIC). On the procedure:
as §1, §2, §3, §4

For assay [5], the system named is Stenotrohomonas maltophilia SR21970. In words: in vitro antimicrobial activity, MIC by agar plate incubation (CLSI method, Mueller-Hinton agar). The following applies: L-1, MBL producing strain (carbapenem resistant strain), 10000 cfu/spot, read-out: Minimum Inhibitory Concentration (MIC). On the procedure: as §1
(Microbe/Strain Species Nos. 5):
Measurement of Minimum Inhibitory Concentration (MIC, microgram/ml) was conducted according to the CLSI (Clinical and Laboratory Standards Institute) and the amount of bacteria for inoculation was 10000 cfu/spot, and Mueller-Hinton agar medium was used as the test medium, and conducted using agar plate incubation.
as §4

The mark [6] stands for this setting: SR24396, Acinetobacter baumannii SR24395 (Table 10).

In brackets after ≈: the same amount, converted by molar mass. Like-named read-outs stand apart in the source and are kept apart here.

For the compound `CC(C)(O/N=C(\C(=O)N[C@@H]1C(=O)N2C(C(=O)O)=C(C[N+]34CCC(CNC(=O)c5cc(=O)c(O)c[nH]5)(CC3)CC4)CS[C@H]12)c1csc(N)n1)C(=O)[O-]` [Compound I-2], the MIC is 0.125 µg/mL (≈ 0.168 µM) in assay [1], 1 µg/mL (≈ 1.34 µM) in assay [2] (setting [6]), 1 µg/mL (≈ 1.34 µM) in assay [3] and 1 µg/mL (≈ 1.34 µM) in assay [4].

With `CC(C)(O/N=C(\C(=O)N[C@@H]1C(=O)N2C(C(=O)[O-])=C(C[N+]3(CCNC(=O)c4cc(=O)c(O)c[nH]4)CCCC3)CS[C@H]12)c1csc(N)n1)C(=O)[O][Na]` [Compound I-4], the MIC in assay [1] was determined as 0.063 µg/mL; in assay [2] (setting [6]) it was 0.5 µg/mL; in assay [3], 0.25 µg/mL; in assay [4], 0.25 µg/mL; in assay [5], 1 µg/mL.

Regarding `CC(C)(O/N=C(\C(=O)N[C@@H]1C(=O)N2C(C(=O)O)=C(C[N+]3(CCNC(=O)c4cc(=O)c(O)cn4O)CCCC3)CS[C@H]12)c1csc(N)n1)C(=O)[O-]` [Compound I-6], the MIC in assay [1] was 0.063 µg/mL (≈ 0.0857 µM); in assay [2] (setting [6]), 0.25 µg/mL (≈ 0.34 µM); in assay [3], 0.25 µg/mL (≈ 0.34 µM); in assay [4] it was 0.25 µg/mL (≈ 0.34 µM); in assay [5], 1 µg/mL (≈ 1.36 µM).

Consider `Nc1nc(/C(=N/O[C@@H](CC(=O)O)C(=O)[O-])C(=O)N[C@@H]2C(=O)N3C(C(=O)O)=C(C[N+]45CCC[C@H]4CN(C(=O)c4cc(=O)c(O)c[nH]4)CC5)CS[C@H]23)cs1` (stereo partly shown) [Compound I-11], for which the MIC stood at 0.25 µg/mL (≈ 0.329 µM) in assay [1]; 0.25 µg/mL (≈ 0.329 µM) in assay [2] (Acinetobacter baumannii SR24396 (Table 11)); 1 µg/mL (≈ 1.31 µM) in assay [3]; 0.5 µg/mL (≈ 0.657 µM) in assay [4]; 1 µg/mL (≈ 1.31 µM) in assay [5].

The values are drawn from patent publication US8883773B2, “Cephem compound having pseudo-catechol group” (Shionogi & Co., Ltd., priority 2010, dated 2014).
